Experiments:
Integrin alpha-V/beta-5 = Integrin alpha-V/beta-5 (Homo sapiens, UniProt P06756+P18084); experiment: Binding affinity to Integrin alpha-v-beta-5 receptor by ELISA assay; type: protein-complex assay
[1] = Binding affinity to Integrin […] receptor by ELISA assay; set-up: species or system Homo sapiens
[2] = Binding affinity to Integrin alpha-2b-beta-3a receptor by ELISA assay; set-up: species or system Homo sapiens
Integrin alpha-V/beta-3 = Integrin alpha-V/beta-3 (Homo sapiens, UniProt P05106+P06756); experiment: Binding affinity to Integrin alpha-v-beta-3 receptor by ELISA assay; type: protein-complex assay
[3] = Permeability from apical to basolateral side of human Caco-2 cell membrane; type: ADME, cell-based
[4] = Permeability from basolateral to apical side of human Caco-2 cell membrane; type: ADME, cell-based

Sequence of Integrin alpha-V/beta-5 (P06756 31-889 limits assumed): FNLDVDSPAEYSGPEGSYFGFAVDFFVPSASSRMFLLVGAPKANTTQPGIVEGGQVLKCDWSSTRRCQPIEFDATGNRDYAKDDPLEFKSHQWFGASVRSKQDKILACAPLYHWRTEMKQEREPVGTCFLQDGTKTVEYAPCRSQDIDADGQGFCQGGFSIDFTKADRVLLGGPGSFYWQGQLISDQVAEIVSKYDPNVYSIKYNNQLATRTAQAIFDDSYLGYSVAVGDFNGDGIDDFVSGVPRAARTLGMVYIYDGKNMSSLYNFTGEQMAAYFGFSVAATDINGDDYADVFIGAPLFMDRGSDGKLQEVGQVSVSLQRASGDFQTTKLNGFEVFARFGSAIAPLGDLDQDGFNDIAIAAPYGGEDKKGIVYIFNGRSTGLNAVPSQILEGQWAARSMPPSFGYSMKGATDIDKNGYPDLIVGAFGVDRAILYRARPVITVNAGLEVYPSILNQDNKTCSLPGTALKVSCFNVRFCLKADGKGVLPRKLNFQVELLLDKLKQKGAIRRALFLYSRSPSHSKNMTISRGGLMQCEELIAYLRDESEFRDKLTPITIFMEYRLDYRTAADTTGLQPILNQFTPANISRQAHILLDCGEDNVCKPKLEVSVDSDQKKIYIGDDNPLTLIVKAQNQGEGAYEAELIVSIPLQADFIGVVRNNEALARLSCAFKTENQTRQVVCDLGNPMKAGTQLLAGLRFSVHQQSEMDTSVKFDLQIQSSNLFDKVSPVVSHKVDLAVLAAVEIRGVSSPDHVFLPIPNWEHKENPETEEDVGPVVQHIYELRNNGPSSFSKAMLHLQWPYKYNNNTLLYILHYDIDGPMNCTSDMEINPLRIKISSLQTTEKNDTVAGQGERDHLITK
Sequence of Integrin alpha-V/beta-5 (P06756 891-1048 limits assumed): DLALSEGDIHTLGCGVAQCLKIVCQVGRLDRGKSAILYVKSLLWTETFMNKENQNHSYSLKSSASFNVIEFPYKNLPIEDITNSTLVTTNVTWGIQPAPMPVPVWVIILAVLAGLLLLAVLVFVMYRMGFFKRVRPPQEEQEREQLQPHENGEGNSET
Sequence of Integrin alpha-V/beta-5 (P18084 24-799 limits assumed): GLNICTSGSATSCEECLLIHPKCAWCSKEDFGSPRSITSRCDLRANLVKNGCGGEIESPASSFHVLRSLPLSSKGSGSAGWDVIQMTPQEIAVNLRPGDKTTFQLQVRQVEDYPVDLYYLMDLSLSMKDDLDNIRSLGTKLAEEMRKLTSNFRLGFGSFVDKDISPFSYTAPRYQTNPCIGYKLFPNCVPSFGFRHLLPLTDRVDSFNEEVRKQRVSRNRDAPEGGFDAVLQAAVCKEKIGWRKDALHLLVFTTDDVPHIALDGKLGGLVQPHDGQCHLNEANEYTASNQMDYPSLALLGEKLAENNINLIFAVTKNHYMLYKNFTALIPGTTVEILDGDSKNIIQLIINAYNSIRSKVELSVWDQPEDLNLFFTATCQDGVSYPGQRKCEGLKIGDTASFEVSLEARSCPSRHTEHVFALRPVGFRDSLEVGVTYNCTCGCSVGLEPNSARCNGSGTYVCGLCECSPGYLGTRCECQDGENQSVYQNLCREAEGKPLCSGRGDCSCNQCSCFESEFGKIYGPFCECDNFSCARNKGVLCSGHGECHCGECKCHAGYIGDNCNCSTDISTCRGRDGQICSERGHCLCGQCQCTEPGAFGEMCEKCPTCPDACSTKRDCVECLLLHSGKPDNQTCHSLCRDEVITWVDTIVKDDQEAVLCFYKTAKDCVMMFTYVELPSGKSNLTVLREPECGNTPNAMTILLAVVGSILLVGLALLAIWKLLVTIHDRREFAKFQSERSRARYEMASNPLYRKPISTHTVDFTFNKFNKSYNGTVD
Sequence of Integrin alpha-V/beta-3 (P05106 27-788 limits assumed): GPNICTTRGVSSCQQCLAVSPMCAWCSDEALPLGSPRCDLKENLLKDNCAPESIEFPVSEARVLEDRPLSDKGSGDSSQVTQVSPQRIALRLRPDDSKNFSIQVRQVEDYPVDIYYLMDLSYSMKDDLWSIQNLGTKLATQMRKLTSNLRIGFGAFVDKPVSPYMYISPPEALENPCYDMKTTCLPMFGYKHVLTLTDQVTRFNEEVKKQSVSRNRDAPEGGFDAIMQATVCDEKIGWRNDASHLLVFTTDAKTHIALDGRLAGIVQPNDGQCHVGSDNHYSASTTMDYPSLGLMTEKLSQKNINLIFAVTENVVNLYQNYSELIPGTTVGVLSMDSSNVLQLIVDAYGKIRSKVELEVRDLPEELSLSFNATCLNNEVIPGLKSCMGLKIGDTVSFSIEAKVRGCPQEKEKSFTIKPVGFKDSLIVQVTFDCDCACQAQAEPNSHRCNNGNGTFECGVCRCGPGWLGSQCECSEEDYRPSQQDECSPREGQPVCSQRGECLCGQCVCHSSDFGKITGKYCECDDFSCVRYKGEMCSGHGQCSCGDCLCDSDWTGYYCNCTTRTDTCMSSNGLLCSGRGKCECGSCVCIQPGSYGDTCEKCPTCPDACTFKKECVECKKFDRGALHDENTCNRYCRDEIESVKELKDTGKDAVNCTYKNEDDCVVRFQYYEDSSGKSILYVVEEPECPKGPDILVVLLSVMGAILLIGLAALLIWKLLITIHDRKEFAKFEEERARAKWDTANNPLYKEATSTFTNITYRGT
Sequence of Integrin alpha-V/beta-3 (P06756 31-889 limits assumed): as the sequence (P06756 31-889 limits assumed) above
Sequence of Integrin alpha-V/beta-3 (P06756 891-1048 limits assumed): as the sequence (P06756 891-1048 limits assumed) above

| IC50 (Integrin alpha-V/beta-5) | IC50 [1] | IC50 [2] | IC50 (Integrin alpha-V/beta-3) | Papp A→B [3] | Papp B→A [4] | SMILES |
| --- | --- | --- | --- | --- | --- | --- |
| 0.21 nM | 15 nM | > 1000 nM | – | – | – | O=C(O)CC(c1cccnc1)n1ccc2cc(OCCc3ccc4c(n3)NCCC4)ccc21 (centres undefined) |
| 0.5 nM | 24 nM | > 1000 nM | – | – | – | O=C(O)CC(c1ccc2c(c1)OCO2)n1ccc2cc(OCCc3ccc4c(n3)NCCC4)ccc21 (centres undefined) |
| 1.1 nM | 107 nM | > 1000 nM | 0.96 nM | – | – | O=C(O)CC(c1ccccc1)n1ccc2c(CCc3ccc4c(n3)NCCC4)cccc21 (centres undefined) |
| 0.96 nM | 250 nM | > 1000 nM | 0.5 nM | 2.2 ×10⁻⁶ cm/s | 2.5 ×10⁻⁶ cm/s | O=C(O)CC(c1cccnc1)n1ccc2c(CCc3ccc4c(n3)NCCC4)cccc21 (centres undefined) |
| 0.68 nM | 41 nM | > 1000 nM | – | – | – | O=C(O)CC(c1ccccc1)n1ccc2cc(OCCc3ccc4c(n3)NCCC4)ccc21 (centres undefined) |
| 15 nM | 1100 nM | > 1000 nM | 14 nM | – | – | O=C(O)CC(c1ccccc1)n1ccc2cc(CCCc3ccc4c(n3)NCCC4)ccc21 (centres undefined) |
| 11 nM | 9400 nM | > 1000 nM | 4.4 nM | – | – | O=C(O)CC(c1cccnc1)n1ccc2c(NCc3ccc4c(n3)NCCC4)cccc21 (centres undefined) |
| – | 14 nM | > 1000 nM | – | – | – | CC(C)[C@H]1C(=O)N[C@@H](CCCNC(=N)N)C(=O)NCC(=O)N[C@@H](CC(=O)O)C(=O)N[C@H](Cc2ccccc2)C(=O)N1C [CILENGITIDE] |
